Test results reported in PubChem BioAssay (NCI).
Values joined by “and” are separate entries in the source; they are usually repeats but may differ in a detail not shown here. Equal values may be shown once.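 A five-concentration, 48-hour dose response in 96-well plates underlies each endpoint, interpolated linearly between surrounding concentrations. GI50 is the concentration that inhibits growth by half. Definition used: TGI = concentration required for complete inhibition of growth.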

Assays:
Assay in all cases: NCI anticancer screen, dose series, 48 h
SF-295 CNS = system: SF-295 CNS
HT29 colon = system: HT29 colon
IGROV1 ovarian = system: IGROV1 ovarian
T-47D breast = system: T-47D breast
SK-MEL-5 melanoma = system: SK-MEL-5 melanoma
M14 melanoma = system: M14 melanoma
A549 NSCLC = system: A549 NSCLC
OVCAR-3 ovarian = system: OVCAR-3 ovarian
TK-10 renal = system: TK-10 renal
U251 CNS = system: U251 CNS
786-0 renal = system: 786-0 renal
UACC-257 melanoma = system: UACC-257 melanoma
UACC-62 melanoma = system: UACC-62 melanoma
NCI-H23 lung = system: NCI-H23 lung
DU-145 prostate = system: DU-145 prostate
HL-60(TB) leukemia = system: HL-60(TB) leukemia
HOP-92 NSCLC = system: HOP-92 NSCLC
RPMI-8226 leukemia = system: RPMI-8226 leukemia
COLO 205 colon = system: COLO 205 colon
SF-268 CNS = system: SF-268 CNS
SK-MEL-28 melanoma = system: SK-MEL-28 melanoma
NCI/ADR-RES ovarian = system: NCI/ADR-RES ovarian
NCI-H522 lung = system: NCI-H522 lung
MDA-MB-435 = system: MDA-MB-435
RXF 393 renal = system: RXF 393 renal
SK-OV-3 ovarian = system: SK-OV-3 ovarian
SW-620 colon = system: SW-620 colon
OVCAR-5 ovarian = system: OVCAR-5 ovarian
SNB-19 CNS = system: SNB-19 CNS
EKVX NSCLC = system: EKVX NSCLC
A498 renal = system: A498 renal
UO-31 renal = system: UO-31 renal
HCC-2998 colon = system: HCC-2998 colon
CCRF-CEM leukemia = system: CCRF-CEM leukemia
NCI-H460 lung = system: NCI-H460 lung
MOLT-4 leukemia = system: MOLT-4 leukemia
BT-549 breast = system: BT-549 breast
SNB-75 CNS = system: SNB-75 CNS
KM12 colon = system: KM12 colon
CAKI-1 renal = system: CAKI-1 renal
HOP-62 NSCLC = system: HOP-62 NSCLC
SR leukemia = system: SR leukemia
SN12C renal = system: SN12C renal
HCT-116 colon = system: HCT-116 colon
MDA-MB-231 breast = system: MDA-MB-231 breast
PC-3 prostate = system: PC-3 prostate
LOX IMVI melanoma = system: LOX IMVI melanoma
HCT-15 colon = system: HCT-15 colon
HS 578T breast = system: HS 578T breast
K-562 leukemia = system: K-562 leukemia
ACHN renal = system: ACHN renal
MALME-3M melanoma = system: MALME-3M melanoma
NCI-H226 lung = system: NCI-H226 lung
OVCAR-4 ovarian = system: OVCAR-4 ovarian
MCF7 breast = system: MCF7 breast
SK-MEL-2 melanoma = system: SK-MEL-2 melanoma
OVCAR-8 ovarian = system: OVCAR-8 ovarian
SF-539 CNS = system: SF-539 CNS

SMILES: CCN(CC)CCC(CNc1ccnc2cc(Cl)ccc12)c1ccc(OC)cc1 (stereo unspecified)
- GI50 (SF-295 CNS): 2.87 µM and 1.95 µM
- TGI (SF-295 CNS): 10.2 µM and 7.8 µM
- GI50 (HT29 colon): 2.47 µM and 0.6 µM
- TGI (HT29 colon): 13.2 µM and 11.2 µM
- GI50 (IGROV1 ovarian): 10.7 µM and 4.28 µM
- TGI (IGROV1 ovarian): 39.8 µM and 24.2 µM
- GI50 (T-47D breast): 2.59 µM and 2.73 µM
- TGI (T-47D breast): 6.66 µM and 7.85 µM
- GI50 (SK-MEL-5 melanoma): 1.64 µM
- TGI (SK-MEL-5 melanoma): 3.09 µM
- GI50 (M14 melanoma): 1.86 µM and 1.88 µM
- TGI (M14 melanoma): 3.61 µM and 3.73 µM
- GI50 (A549 NSCLC): 16.3 µM and 11.3 µM
- TGI (A549 NSCLC): 32.5 µM and 26.1 µM
- GI50 (OVCAR-3 ovarian): 16.7 µM and 6.96 µM
- TGI (OVCAR-3 ovarian): 66.3 µM and 33.1 µM
- GI50 (TK-10 renal): 3.97 µM and 1.99 µM
- TGI (TK-10 renal): 14.2 µM and 5.15 µM
- GI50 (U251 CNS): 4.91 µM and 3.52 µM
- TGI (U251 CNS): 17.2 µM and 11.5 µM
- GI50 (786-0 renal): 11.9 µM and 3.46 µM
- TGI (786-0 renal): 25.8 µM and 11.8 µM
- GI50 (UACC-257 melanoma): 2.19 µM and 1.72 µM
- TGI (UACC-257 melanoma): 3.96 µM and 3.48 µM
- GI50 (UACC-62 melanoma): 2.31 µM and 1.86 µM
- TGI (UACC-62 melanoma): 5.02 µM and 4.01 µM
- GI50 (NCI-H23 lung): 9.4 µM and 10 µM
- TGI (NCI-H23 lung): 26.9 µM and 28.6 µM
- GI50 (DU-145 prostate): 21.9 µM and 26.7 µM
- TGI (DU-145 prostate): > 100 µM
- GI50 (HL-60(TB) leukemia): 6.59 µM and 3.76 µM
- TGI (HL-60(TB) leukemia): 25.3 µM and 20.4 µM
- GI50 (HOP-92 NSCLC): 2.42 µM and 2.12 µM
- TGI (HOP-92 NSCLC): 14.3 µM and 11.5 µM
- GI50 (RPMI-8226 leukemia): 7.14 µM and 2.12 µM
- TGI (RPMI-8226 leukemia): 35.5 µM and 8.15 µM
- GI50 (COLO 205 colon): 1.9 µM and 1.34 µM
- TGI (COLO 205 colon): 4.3 µM and 2.95 µM
- GI50 (SF-268 CNS): 4.19 µM and 5.23 µM
- TGI (SF-268 CNS): 18.4 µM and 21.4 µM
- GI50 (SK-MEL-28 melanoma): 1.75 µM and 1.87 µM
- TGI (SK-MEL-28 melanoma): 3.4 µM and 3.42 µM
- GI50 (NCI/ADR-RES ovarian): 8.66 µM and 7.57 µM
- TGI (NCI/ADR-RES ovarian): 47.5 µM and 34.3 µM
- GI50 (NCI-H522 lung): 3.29 µM and 2.16 µM
- TGI (NCI-H522 lung): 13.1 µM and 8.47 µM
- GI50 (MDA-MB-435): 1.91 µM and 1.65 µM
- TGI (MDA-MB-435): 4.12 µM and 3.71 µM
- GI50 (RXF 393 renal): 3.5 µM and 2.26 µM
- TGI (RXF 393 renal): 15.6 µM and 5.16 µM
- GI50 (SK-OV-3 ovarian): 13.1 µM and 14.1 µM
- TGI (SK-OV-3 ovarian): 33.4 µM and 46 µM
- GI50 (SW-620 colon): 8.16 µM and 4.1 µM
- TGI (SW-620 colon): 22.6 µM and 21.7 µM
- GI50 (OVCAR-5 ovarian): 11.6 µM and 5.65 µM
- TGI (OVCAR-5 ovarian): 32.2 µM and 38.6 µM
- GI50 (SNB-19 CNS): 10.3 µM and 11 µM
- TGI (SNB-19 CNS): 29 µM and 29.9 µM
- GI50 (EKVX NSCLC): 6.44 µM and 12.7 µM
- TGI (EKVX NSCLC): 57.7 µM and > 100 µM
- GI50 (A498 renal): 3.82 µM and 3.49 µM
- TGI (A498 renal): 13.4 µM and 14.1 µM
- GI50 (UO-31 renal): 1.54 µM and 1.88 µM
- TGI (UO-31 renal): 4.35 µM and 11.6 µM
- GI50 (HCC-2998 colon): 3.5 µM and 2.44 µM
- TGI (HCC-2998 colon): 16.2 µM and 6.32 µM
- GI50 (CCRF-CEM leukemia): 13.1 µM and 2.77 µM
- TGI (CCRF-CEM leukemia): 55.9 µM and 28.7 µM
- GI50 (NCI-H460 lung): 11.1 µM and 4.91 µM
- TGI (NCI-H460 lung): 25.6 µM and 24.7 µM
- GI50 (MOLT-4 leukemia): 6.77 µM and 4.68 µM
- TGI (MOLT-4 leukemia): 41.4 µM and 50.9 µM
- GI50 (BT-549 breast): 8.14 µM and 8.47 µM
- TGI (BT-549 breast): 23.4 µM and 22.6 µM
- GI50 (SNB-75 CNS): 3.39 µM and 2.35 µM
- TGI (SNB-75 CNS): 17.3 µM and 7.84 µM
- GI50 (KM12 colon): 12.8 µM and 5.62 µM
- TGI (KM12 colon): 28.6 µM and 21.5 µM
- GI50 (CAKI-1 renal): 5.85 µM and 2.54 µM
- TGI (CAKI-1 renal): 23.2 µM and 15.9 µM
- GI50 (HOP-62 NSCLC): 14.4 µM and 9.7 µM
- TGI (HOP-62 NSCLC): 39.2 µM and 34 µM
- GI50 (SR leukemia): 2.31 µM and 2.04 µM
- TGI (SR leukemia): 8.35 µM and 7.34 µM
- GI50 (SN12C renal): 12.9 µM and 11.4 µM
- TGI (SN12C renal): 34.3 µM and 37.8 µM
- GI50 (HCT-116 colon): 5.15 µM and 1.87 µM
- TGI (HCT-116 colon): 24.7 µM and 14.4 µM
- GI50 (MDA-MB-231 breast): 2.34 µM and 2.42 µM
- TGI (MDA-MB-231 breast): 11.2 µM and 10.9 µM
- GI50 (PC-3 prostate): 19.5 µM and 9.85 µM
- TGI (PC-3 prostate): 76.3 µM and > 100 µM
- GI50 (LOX IMVI melanoma): 1.88 µM and 1.6 µM
- TGI (LOX IMVI melanoma): 4.79 µM and 4.15 µM
- GI50 (HCT-15 colon): 3.06 µM and 3.51 µM
- TGI (HCT-15 colon): 12.3 µM and 16.5 µM
- GI50 (HS 578T breast): 5.51 µM and 7.53 µM
- TGI (HS 578T breast): 23.4 µM and 34.3 µM
- GI50 (K-562 leukemia): 1.79 µM and 1.19 µM
- TGI (K-562 leukemia): 5.76 µM and 4.14 µM
- GI50 (ACHN renal): 5.24 µM and 2.77 µM
- TGI (ACHN renal): 19.1 µM and 9.6 µM
- GI50 (MALME-3M melanoma): 1.95 µM and 1.86 µM
- TGI (MALME-3M melanoma): 3.76 µM and 3.64 µM
- GI50 (NCI-H226 lung): 4.14 µM and 4.92 µM
- TGI (NCI-H226 lung): 17.3 µM and 28.4 µM
- GI50 (OVCAR-4 ovarian): 3.7 µM and 4.66 µM
- TGI (OVCAR-4 ovarian): 20.3 µM and 28.1 µM
- GI50 (MCF7 breast): 4.98 µM and 4.5 µM
- TGI (MCF7 breast): 21.1 µM and 17.9 µM
- GI50 (SK-MEL-2 melanoma): 15.4 µM and 2.02 µM
- TGI (SK-MEL-2 melanoma): 33.1 µM and 4.07 µM
- GI50 (OVCAR-8 ovarian): 5.76 µM and 4.78 µM
- TGI (OVCAR-8 ovarian): 27.2 µM and 19.3 µM
- GI50 (SF-539 CNS): 1.56 µM and 1.7 µM
- TGI (SF-539 CNS): 3.17 µM and 3.6 µM
